For data set [1], the system named is HIV. Put plainly: Anti-HIV activity on the protein level: viral core protein p24 in supernatant of HIV-infected mitogen-stimulated human lymphocytes (ELISA). The format is cell-based, HIV (in peripheral human lymphocytes). As to conditions: for HIV p24 in supernatant: 10 μM; for inhibition at 10 µM: Human immunodeficiency virus 1, Lymphocyte. How it is done: (§1) The compounds of the present invention were tested for antiviral activity on peripheral human lymphocytes isolated by density gradient centrifugation and stimulated with a mitogen.
(§2) Infection was performed with a standardized preparation of HIV and cells, cultured in the presence of the drug for 4 days.
Individual cultures were established to measure viral replication 2, 3 and 4 days after infection. The amount of viral core protein P 24, synthesized and released by the infected cells, was determined in the supernatant of treated and untreated cells on days 2, 3 and 4 by an Elisa.
(§3) The antiviral effect induced by the tested compounds was calculated from the inhibition of the evaluated parameters (i.e.: P24 or RNA) as compared with infected controls.

For data set [2], the system named is HIV. Kind of data set: Anti-HIV activity on the RNA level: viral RNA synthesized by HIV-infected human lymphocytes (nucleic acid hybridization). Type of data set: cell-based, HIV (in peripheral human lymphocytes). To be noted: for HIV RNA: 10 μM; for inhibition at 10 µM: Human immunodeficiency virus 1, Lymphocyte. How it is done:
as §1, §2
The total amount of viral RNA synthesized by the infected lymphocytes was determined on day 2, 3 and 4 by a nucleic acid hybridization technique. By including a standard preparation of HIV-RNA, the amount of synthesized RNA was quantified.
as §3

Data set [3] relates to peripheral human lymphocytes. Kind of data set: Cytotoxicity (10 μM stated to be non cytotoxic). The format is cell-based.
In data set [4] the test system is snake venom phosphodiesterase. Put plainly: Enzymatic hydrolysis of the deprotected dinucleotide thiophosphates by snake venom phosphodiesterase (HPLC substrate disappearance). To be noted: for Reduction in the area of the HPLC peak relatively to the control / Substrate change on enzymatic hydrolysis (in words): 37° C., pH 8. Type of data set: biochemical, Crotalus durissus. How it is done: The two samples XIIa and XIIb can independently undergo an enzymatic degradation by action of an exonuclease like snake venom phosphodiesterase following the disappearance of starting sample by HPLC along the time. […] Accordingly the configuration RP has to be assigned to XIIa and configuration SP to XIIb.
The relative susceptivity of the two substrates XIIa and XIIb to hydrolysis by snake venom phosphodiesterase was determined by incubating a solution (3 mM) of each substrate in Tris buffer (25 mM) containing MgCl2 (5 mM) at pH 8 with the enzyme (1 mg in 0.5 ml) (from Crotalus durissus) purchased from Boehringer and following the substrate disappearance by HPLC. In particular for each substrate a solution was prepared consisting of 700 μl of buffer, 200 μl of substrate solution plus 50 μl of enzyme solution. For each substrate a control was prepared with the same components and volumes except for the enzyme that was replaced by an equal volume of buffer. The four solutions (the two substrates and the two controls) were incubated at 37° C. taking aliquots from each solution at 0 time, 1 hour, 17 hours. Such aliquots were analyzed by HPLC (Whatman Partisphere C18, eluting with a linear gradient from 10% to 30% of methanol 0.1 M ammonium acetate) at 220 nm.

[5] abbreviates: 72 h, Day 3, read-out: Inhibition of HIV replication on the protein level.
Where [6] appears, read: 96 h, Day 4, read-out: Inhibition of HIV replication on the protein level.
The mark [7] stands for this setting: 72 h, Day 3, read-out: Inhibition of HIV replication on the RNA level.
[8] abbreviates: 96 h, Day 4, read-out: Inhibition of HIV replication on the RNA level.

Where a name gives a salt, the structure may show the parent alone.

Consider `Nc1ccn([C@H]2C[C@@H]3O[P@](O)(=S)OC[C@H]4O[C@@H](n5ccc(N)nc5=O)C[C@@H]4O[P@](O)(=S)OC[C@H]3O2)c(=O)n1` [Compound IIa, Cyclo-2'-deoxy-(RP)-P-thiocytidylyl-(3'→5')-2'-deoxy-(RP)-P-thiocytidylyl-(3'→5'), sodium salt], for which the “HIV p24 in supernatant” value with HIV [1] (Day 2) was 0.0 ng p24/ml; with HIV [1] (Day 3, control 2.2 ng p24/ml) it was 0.1 ng p24/ml; in the data set on HIV [1] (Day 4, control 21.5 ng p24/ml), 17.1 ng p24/ml. Moreover, the inhibition at 10 µM in the data set with HIV [1] (setting [5]) turned out to be 97%; with HIV [1] (setting [6]), 20%; with HIV [2] (setting [7]), 17%; with HIV [2] (setting [8]), 24%. Further, the “HIV RNA” value came to 0 pg RNA/ml in the data set on HIV [2] (Day 2); 188 pg RNA/ml with HIV [2] (Day 3, control 226 pg RNA/ml); 465 pg RNA/ml in the data set with HIV [2] (Day 4, control 612 pg RNA/ml).
As to `Nc1ccn([C@H]2C[C@@H]3O[P@@](O)(=S)OC[C@H]4O[C@@H](n5ccc(N)nc5=O)C[C@@H]4O[P@](O)(=S)OC[C@H]3O2)c(=O)n1` [Compound IIb, Cyclo-2'-deoxy-(SP)-P-thiocytidylyl-(3'→5')-2'-deoxy-(RP)-P-thiocytidylyl-(3'→5'), sodium salt], the Cytotoxicity entry in data set [3] is given as “non cytotoxic”. Besides, the “HIV p24 in supernatant” value stood at 0.0 ng p24/ml in the data set with HIV [1] (Day 2); 0.0 ng p24/ml in the data set with HIV [1] (Day 3, control 2.2 ng p24/ml); 3.7 ng p24/ml with HIV [1] (Day 4, control 21.5 ng p24/ml). Also, the inhibition at 10 µM in the data set with HIV [1] (setting [5]) stood at 100%; in the data set on HIV [1] (setting [6]) it was 83%; in the data set with HIV [2] (setting [7]), 100%; with HIV [2] (setting [8]) it was 56%. In addition, the “HIV RNA” value in the data set on HIV [2] (Day 2) is on record as 0 pg RNA/ml; in the data set on HIV [2] (Day 3, control 226 pg RNA/ml), 0 pg RNA/ml; in the data set with HIV [2] (Day 4, control 612 pg RNA/ml) it was 266 pg RNA/ml.
As for `Nc1ccn([C@H]2C[C@H](O[P@](O)(=S)OC[C@H]3O[C@@H](n4ccc(N)nc4=O)C[C@@H]3O)[C@@H](CO)O2)c(=O)n1` [XIIa, 2'-deoxy-(RP)-P-thiocytidylyl-(3'→5')-2'-deoxycytidine sodium salt], in data set [4] (XIIa versus XIIb, snake venom phosphodiesterase), the “Relative rate of enzymatic degradation” value is given as “degraded much faster than the sample XIIb”. Besides, the “Reduction in the area of the HPLC peak relatively to the control” value in data set [4] (after 1 hour) amounted to 50%; in data set [4] (after 17 hours), 72%.
With `Nc1ccn([C@H]2C[C@H](O[P@@](O)(=S)OC[C@H]3O[C@@H](n4ccc(N)nc4=O)C[C@@H]3O)[C@@H](CO)O2)c(=O)n1` [XIIb, 2'-deoxy-(SP)-P-thiocytidylyl-(3'→5 '-2-deoxycytidinesodium salt], the “Substrate change on enzymatic hydrolysis (in words)” value in data set [4] (after 1 hour) and in data set [4] (after 17 hours) was “almost unchanged” each time.

These data come from patent US5547941A, “Cyclic dinucleoside diphosphorothioates, related compounds and pharmaceutical compositions” (priority 1991, dated 1996).
